Measurements published in US4798898A, “Antitussive and mucus regulating 2-substituted thiazolidines” (Boehringer Biochemia Robin S.p.A., priority 1984, dated 1989).
Where two headings read alike, the source gives them in different places.

How the values were obtained:
[1] = tested on: pathological sputum of bronchitic rabbits; test: Mucus regulating properties in bronchitic rabbits (sputum AUC as % compared to bronchitic controls); type: in vivo, male New Zealand white rabbits; details: for Fucose (mg/ml), AUC as a 100% compared to bronchitic controls / Galactose (mg/ml), AUC as a 100% compared to bronchitic controls / Mucus production (ml/kg), AUC as a 100% compared to bronchitic controls / Phospholipids (mg/ml), AUC as a 100% compared to bronchitic controls / Protein (mg/ml), AUC as a 100% compared to bronchitic controls / Sialic acid (mg/ml), AUC as a 100% compared to bronchitic controls / Viscosity (cps), AUC as a 100% compared to bronchitic controls: Table 2, equimolecular amounts to S-carboxymethyl cysteine; for mucus regulating activity (in words): rabbit, in vivo; for mucus regulating effectiveness compared with carboxymethylcysteine: dosage level 0.01-0.08M vs 0.153M carboxymethylcysteine
Method: The animals are submitted to inhalation of a 5% H2 SO3 aqueous solution by aerosol (exposition of 3 hours a day for 3 alternate days), to induce a chronic bronchial inflammatory disease which causes a production of pathological sputum in the bronchial tree.
Aim of the experiments is to evaluate modifications of selective parameters such as dry weight of the sputum, viscosity, content in proteins, phospholipids, galactose, sialic acid and fucose, induced in this pathological sputum by pharmacological treatment with the compounds of the invention.
To this purpose, the sputum produced in the bronchial tree is collected daily, through a "T" shaped glass cannula, inserted in the trachea, before and after oral twice a day (9.00 a.m. and 4.00 p.m.) treatment with one of the compounds of the invention.
The schedule treatment procedure is shown in the following Scheme 1: [drawing 21] where 0 indicates the day of implantation of the tracheal cannula; -7-5-3 indicate the days of H2 SO3 treatment (H); 1, 2, 3, 4 indicate the days of oral administration of the compounds of the invention (T) and the time of mucus collection (M).
The mucus collected in day 1 in the morning is considered as a blank; 7 indicates the day of the animal sacrifice after the mucous collection.
The sputum samples are stored in the freezer (-20° C.) until the investigation of biological and rheological parameters is carried out.
The samples are investigated for relative viscosity, measured at 37° C. with a Brookfield viscometer (model LT VD) equipped with a 1,565° cone-plate, and aliquoted for biochemical analysis of protein, phospholipids, galactose, sialic acid and fucose contents. Dry weight of the mucus is also determined. For each parameter, cumulative data are referred to a seven days period after the beginning of the treatment and they are extrapolated using the AUC method (area under curve) calculated by the trapazoidal rule. Finally the data are compared with data obtained from controls (vehicle treatment), non bronchitic rabbits (vehicle treatment) and positive controls bronchitic rabbits treated with 0.153M […].

[2] = tested on: cough induced by citric acid aerosol in guinea pigs; test: Guinea pig cough test (citric acid aerosol, Charlier procedure); type: in vivo
Method: (§1) The techniques described by Charlier et al. (Arch. Int. Pharmacodyn. 134, 306, 1961) and by Stefko et al. (J. Pharm. Exp. Therap., 108, 217, 1953), adapted with minor modifications, are used to investigate the antitussive properties of the compounds of the invention. Codeine phosphate is used as positive reference compound.
According to the Charlier procedure guinea pigs are exposed to a citric acid aerosol (7.5%) and cough is recorded 60 minutes after the antitussive treatment by i.p. route. Male animals of 300-400 g pigs are placed in perspex box (20×30×30 cm) connected to an aerosol compressor; the animals are subjected to a citric acid saturated atmosphere, 60 minutes after the i.p. injection of a compound of the invention (0.1 and 0.3M solutions; 1 ml/kg).
The total number of cough strokes and the delay of the first cough are recorded during the first five minutes.
Five guinea pigs are used for each dose level and the results are compared with controls (vehicle treatment) and codeine phosphate 0.07M solution (standard treatment).
ED50 and the corresponding delay of first cough stroke are calculated.
The data obtained by i.p. administration are confirmed by oral administration.

[3] = tested on: cough induced by electric stimulation in dogs; test: Dog cough test (cough induced by electric stimulation, Stefko procedure); type: in vivo, conscious mongrel dogs; details: for duration of action: dog cough test, in words; for % inhibition of cough stimulus: oral, dose not given
Method: as §1
In the Stefko procedure, conscious mongrel dogs (15±3 kg body weight) are used; the compounds of the invention are tested for their ability to inhibit cough induced by electric stimulation.
Under general anesthesia, two insulated nichrome wires (0.4 mm diameter) are surgically implanted into the submucosa of the trachea.
About two days later, the dogs are placed in a sling and the exteriorized electrodes are connected to an electric stimulating device (such as Grass S 48 Mod.).
The stimulation parameters such as: delay 0.01 msec, duration 1 msec, frequency 30 Hz, are used.
An electrical stimulus of 1 sec is applied 10 times at 5 sec intervals in order to determine the minimum voltage necessary for eliciting reproducible cough responses. Then, tussive responses to the electrical stimuli are registered at 15, 30, 60, 90, 120, 150, 180, 240, 300 and 360 minutes after oral administration of the compounds of the invention.
The tussive responses are scored as follows: 1: no response; 2: sigh or exaggerated expiration; 3: marked cough; 4: one marked cough and one exaggerated expiration: 5: two marked coughs.
Six dogs are employed for each determination and the mean activity is calculated.
The inhibition percent of the cough response and the duration of activity are compared with codeine.

[4] = Table 1, 0.153 M, oral, AUC over seven days
[5] = guinea pig cough test, i.p., 60 minutes after treatment
[6] = Cavia porcellus, ip, 1 h, guinea pig cough test, i.p., 60 minutes after treatment, read-out: ED50

N[C@@H](CSCC(=O)O)C(=O)O [S--carboxymethyl cysteine, S-carboxymethyl cysteine, reference compound]
Fucose mg/ml, AUC as a % compared to bronchitic controls [1, 4]: 56% | Galactose mg/ml, AUC as a % compared to bronchitic controls [1, 4]: 64% | Mucus production ml/kg, AUC as a % compared to bronchitic controls [1, 4]: 97% | Phospholipids mg/ml, AUC as a % compared to bronchitic controls [1, 4]: 108% | Protein mg/ml, AUC as a % compared to bronchitic controls [1, 4]: 105% | Sialic acid mg/ml, AUC as a % compared to bronchitic controls [1, 4]: 60% | Viscosity (cps), AUC as a % compared to bronchitic controls [1, 4]: 52%

COc1ccccc1OCC1N[C@H](C(=O)O)CS1 (stereo partly drawn) [4-carboxy-2-(o-methoxyphenoxymethyl)thiazolidine]
Fucose (mg/ml), AUC as a 100% compared to bronchitic controls ([1]; oral): 55% | Galactose (mg/ml), AUC as a 100% compared to bronchitic controls ([1]; oral): 29% | Mucus production (ml/kg), AUC as a 100% compared to bronchitic controls ([1]; oral): 95% | Phospholipids (mg/ml), AUC as a 100% compared to bronchitic controls ([1]; oral): 49% | Protein (mg/ml), AUC as a 100% compared to bronchitic controls ([1]; oral): 48% | Sialic acid (mg/ml), AUC as a 100% compared to bronchitic controls ([1]; oral): 52% | Viscosity (cps), AUC as a 100% compared to bronchitic controls ([1]; oral): 40% | ED50 [2, 5]: inactive | duration of action [3]: middle | % inhibition of cough stimulus ([3]; dog): 43.8%

COc1ccccc1OCC1SCCN1C(=O)CSC(=O)c1ccccc1 (stereo not drawn) [3-benzoylthioacetyl-2-(o-methoxyphenoxy)methyl-thiazolidine]
ED50 [2, 6]: 0.5 to 4 mg/kg

CC(=O)SCC(=O)Oc1ccccc1OCC1SCCN1C(=O)CSC(C)=O (stereo not drawn) [3-α-acetylthioacetyl-2-[(o-α-acetylthioacetoxyphenoxy)methyl]thiazolidine]
Fucose (mg/ml), AUC as a 100% compared to bronchitic controls ([1]; oral): 147.9% | Galactose (mg/ml), AUC as a 100% compared to bronchitic controls ([1]; oral): 72.9% | Mucus production (ml/kg), AUC as a 100% compared to bronchitic controls ([1]; oral): 74.0% | Phospholipids (mg/ml), AUC as a 100% compared to bronchitic controls ([1]; oral): 49.8% | Protein (mg/ml), AUC as a 100% compared to bronchitic controls ([1]; oral): 46.9% | Sialic acid (mg/ml), AUC as a 100% compared to bronchitic controls ([1]; oral): 31.3% | Viscosity (cps), AUC as a 100% compared to bronchitic controls ([1]; oral): 71.9% | mucus regulating activity (in words) [1]: particularly favourable increase of their mucus regulating activity | ED50 [2, 6]: 162 mg/kg | decrease of the antitussive potency in comparison with the reference compound 3 ([2]; guinea pig cough test): ~10 times

COc1ccccc1OCC1SCCN1C(=O)CN1CCN(C)CC1 (stereo not drawn) [3-(4'-methyl-piperazin-1'-yl)acetyl-2-(o-methoxyphenoxy)methyl-thiazolidine]
ED50 [2, 6]: 0.5 to 4 mg/kg

COc1ccccc1SCC1SCCN1C(=O)CSC(C)=O (stereo not drawn) [3α-acetylthioacetyl-2-(o-methoxyphenylthio)methyl-thiazolidine]
ED50 [2, 6]: 0.5 to 4 mg/kg

COc1ccccc1OCC1SCCN1C(=O)CSC(=O)CN1CCN(C)CC1 (stereo not drawn) [3-(4'-methylpiperazine-1-yl)acetylthioacetyl-2-(o-methoxyphenoxy)methylthiazolidine]
ED50 [2, 6]: 0.5 to 4 mg/kg

COc1ccccc1OCC1SCCN1C(=O)CSC(=O)CCC1CCCCC1 (stereo not drawn) [3-(3'-cyclohexyl)propionylthioacetyl-2-(o-methoxyphenoxy)methyl-thiazolidine]
ED50 [2, 6]: 0.5 to 4 mg/kg

CC(=O)SCC(=O)N1CCSC1COc1ccccc1C (stereo not drawn) [3-acetylthioacetyl-2-(o-tolyloxymethyl)thiazolidine]
fucose content in the mucus (in words) ([1]; tested as mucus regulator): increases | galactose content in the mucus (in words) ([1]; tested as mucus regulator): poorly affecting | protein content in the mucus (in words) ([1]; tested as mucus regulator): increases | sialic content in the mucus (in words) ([1]; tested as mucus regulator): poorly affecting | viscosity of the mucus (in words) ([1]; tested as mucus regulator): increases | antitussive properties (in words) [2]: devoid of any antitussive properties

CC(=O)SCC(=O)N1CCSC1COc1ccccc1O (stereo not drawn) [3-acetylthio-acetyl-2-[(o-hydroxyphenoxy)methyl]thiazolidine]
Fucose (mg/ml), AUC as a 100% compared to bronchitic controls ([1]; oral): 90.8% | Galactose (mg/ml), AUC as a 100% compared to bronchitic controls ([1]; oral): 38.2% | Mucus production (ml/kg), AUC as a 100% compared to bronchitic controls ([1]; oral): 99.2% | Phospholipids (mg/ml), AUC as a 100% compared to bronchitic controls ([1]; oral): 47% | Protein (mg/ml), AUC as a 100% compared to bronchitic controls ([1]; oral): 62.0% | Sialic acid (mg/ml), AUC as a 100% compared to bronchitic controls ([1]; oral): 49.5% | Viscosity (cps), AUC as a 100% compared to bronchitic controls ([1]; oral): 31.9% | mucus regulating activity (in words) [1]: particularly favourable increase of their mucus regulating activity | ED50 [2, 6]: 60 mg/kg | decrease of the antitussive potency in comparison with the reference compound 3 ([2]; guinea pig cough test): ~10 times

C#CCOc1ccccc1OCC1SCCN1C(=O)CCn1ccnc1 (stereo not drawn) [3-(3-imidazol-1-yl)-propionyl-2-(O-propargyloxyphenoxy)methyl-thiazolidine]
mucus regulating effectiveness compared with carboxymethylcysteine [1]: at least as effective as 0.153M of 5-carboxymethylcysteine

CCOCCOCC(=O)N1CCSC1COc1ccccc1OC (stereo not drawn) [3-(3,6-dioxa-capriloyl)-2-(O-methoxyphenoxy)methyl-thiazolidine]
mucus regulating effectiveness compared with carboxymethylcysteine [1]: at least as effective as 0.153M of 5-carboxymethylcysteine

COc1ccccc1OCC1NCCS1 (stereo not drawn) [2-(o-methoxyphenoxy)-methyl-thiazolidine, 2-(o-methoxyphenoxymethyl)thiazolidine]
Fucose (mg/ml), AUC as a 100% compared to bronchitic controls ([1]; oral): 76% | Galactose (mg/ml), AUC as a 100% compared to bronchitic controls ([1]; oral): 59% | Mucus production (ml/kg), AUC as a 100% compared to bronchitic controls ([1]; oral): 124% | Phospholipids (mg/ml), AUC as a 100% compared to bronchitic controls ([1]; oral): 106% | Protein (mg/ml), AUC as a 100% compared to bronchitic controls ([1]; oral): 92% | Sialic acid (mg/ml), AUC as a 100% compared to bronchitic controls ([1]; oral): 85% | Viscosity (cps), AUC as a 100% compared to bronchitic controls ([1]; oral): 116%

O=C(O)C1CSC(COc2ccccc2O)N1 (stereo not drawn) [4-carboxy-2-[(o-hydroxyphenoxy)methyl]-thiazolidine]
mucus regulating activity (in words) [1]: high mucus regulating activity | antitussive properties (in words) [2]: reduced antitussive potency

CCOCCSCC(=O)N1CCSC1COc1ccccc1OC (stereo not drawn) [3-(3-thia-6-oxa-capriloyl)-2-(O-methoxyphenoxy)methylthiazolidine]
mucus regulating effectiveness compared with carboxymethylcysteine [1]: at least as effective as 0.153M of 5-carboxymethylcysteine

COc1ccc2c3c1O[C@H]1[C@@H](O)C=C[C@H]4[C@@H](C2)N(C)CC[C@@]341 [codeine phosphate, reference compound]
ED50 ([2]; Cavia porcellus, ip, 1 h): ~23 mg/kg | % delay of the first cough ([2]; guinea pig cough test, control 100): 170% | duration of inhibition of the cough stimulus ([3]; dog, 8 mg/kg): 2 to 4 h | inhibition of the cough stimulus ([3]; dog, 8 mg/kg): 52%

COc1ccccc1OCC1SCCN1C(=O)CCn1ccnc1 (stereo not drawn) [3-(3-imidazol-1-yl)-propionyl-2-(O-methoxyphenoxy)methylthiazolidine]
mucus regulating effectiveness compared with carboxymethylcysteine [1]: at least as effective as 0.153M of 5-carboxymethylcysteine

3-acetylthioacetyl-2-[2'-(o-acetylthioacetoxyphenyl)ethyl]thiazolidine
Fucose (mg/ml), AUC as a 100% compared to bronchitic controls ([1]; oral): 128% | Galactose (mg/ml), AUC as a 100% compared to bronchitic controls ([1]; oral): 67% | Mucus production (ml/kg), AUC as a 100% compared to bronchitic controls ([1]; oral): 76.1% | Phospholipids (mg/ml), AUC as a 100% compared to bronchitic controls ([1]; oral): 47.2% | Protein (mg/ml), AUC as a 100% compared to bronchitic controls ([1]; oral): 48% | Sialic acid (mg/ml), AUC as a 100% compared to bronchitic controls ([1]; oral): 36.2% | Viscosity (cps), AUC as a 100% compared to bronchitic controls ([1]; oral): 70% | mucus regulating activity (in words) [1]: particularly favourable increase of their mucus regulating activity | decrease of the antitussive potency in comparison with the reference compound 3 ([2]; guinea pig cough test): ~10 times | ED50 [2, 5]: 61 mg/kg

CCOC(=O)[C@@H]1CSC(COc2ccccc2OC)N1 (stereo partly drawn) [4-carbethoxy-2-(o-methoxyphenoxy)methyl-thiazolidine]
ED50 [2, 5]: inactive | duration of action [3]: short | % inhibition of cough stimulus ([3]; dog): 26.7%
